# According to publication PMC9101869, “5,2′-Dibromo-2,4′,5′-trihydroxydiphenylmethanone Inhibits LPS-Induced Vascular Inflammation by Targeting the Cav1 Protein” (Molecules, 2022):
# Target: T1, Cav1 (Homo sapiens, UniProt Q03135)
# T1 construct: commercial human recombinant Cav1 (Cloud-Clone Corp.); biotinylated for BLI
# T1 sequence (Q03135 2-178): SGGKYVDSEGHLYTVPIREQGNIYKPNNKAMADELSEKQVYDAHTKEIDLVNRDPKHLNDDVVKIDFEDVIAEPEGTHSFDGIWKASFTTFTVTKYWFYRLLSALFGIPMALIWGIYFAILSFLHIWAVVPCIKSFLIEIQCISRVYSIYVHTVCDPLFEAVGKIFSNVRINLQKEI
# Test: intrinsic fluorescence quenching, double logarithmic fit
# Type: binding
# Settings: 298 K; Cav1 5.0 × 10^−9 mol/L; excitation 280 nm; n fitted as free exponent; read-out: Kb(L.mol^-1) (converted)
# Text: intrinsic fluorescence quenching, double logarithmic fit on Cav1
structure (smiles),measurement,value
"O=C(c1cc(Br)ccc1O)c1cc(O)c(O)cc1Br [TDD, 5,2′-dibromo-2,4′,5′-trihydroxydiphenylmethanone]",Kd,0.917 nM
